Results on four compounds are retold here after paper PMC7662900, “Development of a Bestatin-SAHA Hybrid with Dual Inhibitory Activity against APN and HDAC” (Molecules, 2020).

“Also recorded” adds a separate entry of the source. Read-outs that look alike come from different tables or passages of the source.

For experiment [1], the target named is T1, microsomal APN from porcine kidney microsomes (Sus scrofa, UniProt P15145).
T1 construct: microsomal APN from porcine kidney microsomes (Biocol); purchased Biocol; host or cells: porcine kidney microsomes (tissue-derived)
T1 sequence (P15145 1-963): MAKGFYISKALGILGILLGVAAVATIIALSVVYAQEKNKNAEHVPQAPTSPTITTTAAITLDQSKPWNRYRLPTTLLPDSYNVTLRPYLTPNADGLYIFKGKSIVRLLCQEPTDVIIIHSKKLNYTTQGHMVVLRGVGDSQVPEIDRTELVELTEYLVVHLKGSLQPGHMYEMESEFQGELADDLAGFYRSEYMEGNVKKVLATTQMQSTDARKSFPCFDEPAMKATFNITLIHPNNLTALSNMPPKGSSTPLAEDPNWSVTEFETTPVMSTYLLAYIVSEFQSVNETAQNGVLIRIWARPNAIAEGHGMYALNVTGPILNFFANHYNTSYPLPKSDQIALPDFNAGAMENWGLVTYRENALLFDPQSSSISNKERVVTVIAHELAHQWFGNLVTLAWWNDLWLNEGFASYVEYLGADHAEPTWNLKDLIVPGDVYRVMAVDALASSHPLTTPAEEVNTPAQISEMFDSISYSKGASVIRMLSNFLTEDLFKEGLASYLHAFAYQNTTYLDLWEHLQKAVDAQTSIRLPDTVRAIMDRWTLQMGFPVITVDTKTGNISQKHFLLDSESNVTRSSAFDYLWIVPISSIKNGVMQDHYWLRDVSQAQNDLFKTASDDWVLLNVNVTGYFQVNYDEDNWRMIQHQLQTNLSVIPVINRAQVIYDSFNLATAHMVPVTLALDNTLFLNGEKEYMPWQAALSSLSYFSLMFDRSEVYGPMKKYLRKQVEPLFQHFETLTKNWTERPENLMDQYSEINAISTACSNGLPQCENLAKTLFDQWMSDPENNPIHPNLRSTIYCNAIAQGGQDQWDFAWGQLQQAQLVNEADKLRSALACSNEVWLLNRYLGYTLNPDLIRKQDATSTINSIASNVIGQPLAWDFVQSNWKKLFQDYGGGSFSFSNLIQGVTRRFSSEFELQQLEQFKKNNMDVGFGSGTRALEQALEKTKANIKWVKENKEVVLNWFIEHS
In words: In vitro APN inhibitory assay (l-leu-p-nitroanilide substrate). To be noted: mean ± SD, n ≥ 3. Format: biochemical. The procedure:
The inhibitory activities of target compounds against APN were determined using l-leu-p-nitroanilide as substrate and microsomal APN from porcine kidney microsomes (Biocol) in 50 mM PBS, pH 7.2 as enzyme. Briefly, inhibitors (40 μL), PBS (145 μL), substrate (5 μL) and APN solution (10 μL) were added into 96-well plates. The mixture was incubated at 37 °C for 30 min. […] The inhibition rates were calculated based on the ultraviolet absorption readout of tested wells relative to those of control wells, and the IC50 values were calculated using Prism non-linear curve fitting method.

A further experiment deals with RPMI-8226 cells. Nature of the experiment: Western blot analysis of protein levels in RPMI-8226 cells. The experiment is classed as cell-based, human. To be noted: for HDAC1, HDAC6 and HDAC8 protein levels (western blot) / HDAC decreasing effect under cotreatment with proteasome inhibitor bortezomib: 24 h treatment; for acetyl-histone H3 and acetyl-α-tubulin levels (intracellular target engagement) / HDAC1 and HDAC6 protein levels (western blot): 6 h treatment; for HDAC decreasing effect under cotreatment with proteasome inhibitor bortezomib: pre-incubated with 10 nM bortezomib. The method, then: The RPMI-8226 cells were plated in flat-bottom six-well plates and allowed to grow for 12 h, and then treated with compounds or DMSO for a specific time period. Then, the cells were washed twice with cold PBS and lysed in ice-cold RIPA buffer, which comprised 50 mM Tris Base, 150 mM NaCl, 5 mM EDTA, 0.1% (v/v) SDS, 0.5% (v/v) sodium deoxycholate and 1% (v/v) Triton-x-100. Lysates were cleared by centrifugation. Protein concentrations were determined using the BCA assay. Equal amounts of cell extracts were then resolved by SDS-PAGE, transferred to nitrocellulose membrane and probed with HDAC1 antibody, HDAC6 antibody, HDAC8 antibody, acetyl-histone H3 antibody, acetyl-α-tubulin antibody and β-actin antibody, respectively. The membrane was washed twice with TBST buffer before being incubated with secondary antibodies. Images were acquired using a GE ImageQuant LAS 4000.
Background: A western blot detects proteins with antibodies after separation by electrophoresis.

A further experiment has as its system rat thoracic aorta rings. In words: Ex vivo rat thoracic aorta rings (TARs) assay. To be noted: for anti-angiogenesis activity (microvessel outgrowth) at 5 μM: compared with bestatin at same concentration; for microvessel outgrowth from thoracic aorta ring: indicated concentrations, treated each day for 5 days. The experiment is classed as cell-based. The procedure: Matrigel (100 μL; BD biosciences, NJ) was added into test well of 96-well plates and then allowed to polymerize for 0.5 h at 37 °C. Sprague–Dawley rats that were 4 to 6 weeks old were sacrificed and aortas were harvested. Each aorta was cut into 1 mm slices and embedded in additional 100 μL of Matrigel in 96-well plates. After that, the rings were incubated for 30 min at 37 °C and 5% CO2. Aorta rings were treated with the vehicle (0.5% DMSO) or compounds each day for 5 days and photographed on the sixth day at ×200 magnification. All experiments involving laboratory animals were performed with the approval by the institutional guidelines of Animal Care and Use Committee at Shandong University.

A further experiment deals with T2, HDAC8 (Homo sapiens, UniProt Q9BY41).
T2 construct: purchased BPS Bioscience
T2 sequence (Q9BY41 1-377): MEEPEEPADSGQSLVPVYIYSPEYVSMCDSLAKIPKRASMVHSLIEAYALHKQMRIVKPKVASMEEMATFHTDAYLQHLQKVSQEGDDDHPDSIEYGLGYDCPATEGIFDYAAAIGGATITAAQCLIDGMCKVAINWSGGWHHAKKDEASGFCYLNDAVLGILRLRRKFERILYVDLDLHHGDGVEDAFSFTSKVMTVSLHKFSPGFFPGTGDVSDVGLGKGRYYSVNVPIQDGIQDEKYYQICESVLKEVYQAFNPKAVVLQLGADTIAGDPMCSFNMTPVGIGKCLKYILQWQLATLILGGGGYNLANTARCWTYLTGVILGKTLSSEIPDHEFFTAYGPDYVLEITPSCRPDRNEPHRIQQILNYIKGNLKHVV
Nature of the experiment: In vitro HDACs inhibitory assay (fluorogenic substrate), HDAC8. The experiment is classed as biochemical. The procedure:
(§1) All the HDAC enzymes were brought from BPS Bioscience. Ten μL of enzyme solution (HDAC1, HDAC6 or HDAC8) was mixed with different concentrations of tested compound (50 μL). The mixture was incubated at 37 °C for 5 min, followed by adding 40 μL fluorogenic substrate (Boc-Lys(acetyl)-AMC for HDAC1 and HDAC6, Boc-Lys(triflouroacetyl)-AMC for HDAC8). After incubation at 37 °C for 30 min, the mixture was quenched by addition of 100 μL of developer containing trypsin and Trichostatin A. Over another incubation at 37 °C for 20 min, fluorescence intensity was measured using a microplate reader at excitation and emission wavelengths of 390 nm and 460 nm, respectively. The inhibition rates were calculated from the fluorescence intensity readout of tested wells relative to those of control wells, and the IC50 values were calculated using Prism non-linear curve fitting method.

The target in a further experiment is T3, HDAC1 (Homo sapiens, UniProt Q13547).
T3 construct: purchased BPS Bioscience
In words: In vitro HDACs inhibitory assay (fluorogenic substrate), HDAC1. Format: biochemical. The method, then:
as §1

The target in another experiment is T4, HDAC6 (Homo sapiens, UniProt Q9UBN7).
T4 construct: purchased BPS Bioscience
T4 sequence (Q9UBN7 1-1215): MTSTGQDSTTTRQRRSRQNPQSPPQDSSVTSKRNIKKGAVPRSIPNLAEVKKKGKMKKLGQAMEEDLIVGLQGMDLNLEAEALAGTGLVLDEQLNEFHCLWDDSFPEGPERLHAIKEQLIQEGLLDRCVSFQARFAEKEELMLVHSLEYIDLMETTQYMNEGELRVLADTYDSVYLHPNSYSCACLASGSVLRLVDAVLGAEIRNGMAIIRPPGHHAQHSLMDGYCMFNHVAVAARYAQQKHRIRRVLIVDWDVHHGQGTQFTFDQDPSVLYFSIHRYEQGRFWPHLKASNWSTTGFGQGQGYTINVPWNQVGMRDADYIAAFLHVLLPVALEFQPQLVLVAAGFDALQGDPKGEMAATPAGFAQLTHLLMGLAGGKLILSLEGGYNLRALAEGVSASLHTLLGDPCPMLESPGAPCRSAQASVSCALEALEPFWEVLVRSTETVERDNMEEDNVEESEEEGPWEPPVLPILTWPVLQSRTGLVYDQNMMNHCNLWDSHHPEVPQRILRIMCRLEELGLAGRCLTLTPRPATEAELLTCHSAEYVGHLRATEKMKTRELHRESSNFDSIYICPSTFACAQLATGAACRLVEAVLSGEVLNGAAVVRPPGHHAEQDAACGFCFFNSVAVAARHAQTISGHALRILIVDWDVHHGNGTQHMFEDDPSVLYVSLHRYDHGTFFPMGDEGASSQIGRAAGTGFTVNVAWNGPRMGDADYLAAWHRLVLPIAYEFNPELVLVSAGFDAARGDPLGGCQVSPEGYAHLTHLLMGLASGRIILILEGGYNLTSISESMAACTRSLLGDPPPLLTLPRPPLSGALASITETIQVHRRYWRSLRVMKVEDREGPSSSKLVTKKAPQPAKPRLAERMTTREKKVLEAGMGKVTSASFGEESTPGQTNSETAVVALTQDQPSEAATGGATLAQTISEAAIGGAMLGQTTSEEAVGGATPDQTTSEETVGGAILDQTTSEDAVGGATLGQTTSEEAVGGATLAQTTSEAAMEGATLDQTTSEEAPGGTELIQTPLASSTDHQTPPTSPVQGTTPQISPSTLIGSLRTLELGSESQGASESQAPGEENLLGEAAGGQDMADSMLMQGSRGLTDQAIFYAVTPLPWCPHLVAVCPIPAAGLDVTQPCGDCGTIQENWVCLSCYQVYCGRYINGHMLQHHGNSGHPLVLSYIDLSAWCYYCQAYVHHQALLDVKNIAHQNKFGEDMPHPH
In words: In vitro HDACs inhibitory assay (fluorogenic substrate), HDAC6. The experiment is classed as biochemical. The method, then: as §1

Where [2] appears, read: read-out: Inhibitory Rates at 10 μM, HDAC8.
Setting [3] is: read-out: Inhibitory Rates at 10 μM, HDAC1.
[4] abbreviates: read-out: Inhibitory Rates at 10 μM, HDAC6.

T3 sequence (Q13547 whole entry): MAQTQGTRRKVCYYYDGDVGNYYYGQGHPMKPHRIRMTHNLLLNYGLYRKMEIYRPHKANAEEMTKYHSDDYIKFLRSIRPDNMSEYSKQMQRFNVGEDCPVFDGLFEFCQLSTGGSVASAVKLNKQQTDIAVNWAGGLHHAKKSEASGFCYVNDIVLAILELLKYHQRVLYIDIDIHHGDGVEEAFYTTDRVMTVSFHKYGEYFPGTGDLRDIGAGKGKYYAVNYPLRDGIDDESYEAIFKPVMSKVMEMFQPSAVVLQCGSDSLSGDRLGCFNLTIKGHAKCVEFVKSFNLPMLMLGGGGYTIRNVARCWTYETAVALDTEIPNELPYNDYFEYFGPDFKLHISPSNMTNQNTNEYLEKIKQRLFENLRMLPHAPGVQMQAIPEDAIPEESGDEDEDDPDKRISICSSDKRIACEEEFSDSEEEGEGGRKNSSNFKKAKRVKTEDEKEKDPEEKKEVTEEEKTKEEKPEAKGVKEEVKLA

The term IC50 denotes the midpoint of a concentration-inhibition curve. Lower therefore signals inhibition by little substance. For the compound `CC(C)C[C@H](NC(=O)[C@@H](O)[C@H](N)Cc1ccccc1)C(=O)NCCCCCC(=O)Nc1ccc(NC(=O)CCCCCCC(=O)NO)cc1.O=C(O)C(F)(F)F` [P1, N^1-(4-(6-((S)-2-((2S,3R)-3-Amino-2-hydroxy-4-phenylbutanamido)-4-methylpentanamido)hexanamido)phenyl)-N^8-hydroxyoctanediamide trifluoroacetate], the IC50 in experiment [1] was found to be 3430 ± 140 nM; on HDAC8 (mean ± SD, n ≥ 3), 694 nM; at HDAC1 (mean ± SD, n ≥ 3), 30 nM; against HDAC6 (mean ± SD, n ≥ 3), 11.5 nM. Besides, in the experiment on RPMI-8226 cells (1 μM to 4 μM), the “HDAC1, HDAC6 and HDAC8 protein levels (western blot)” value was “significantly decrease the levels of HDAC1, HDAC6 and even HDAC8 in a dose-dependent manner”. For the same compound, in the experiment with RPMI-8226 cells, the “acetyl-histone H3 and acetyl-α-tubulin levels (intracellular target engagement)” value was “increased levels of acetyl-histone H3 (the HDAC1 substrate) and acetyl-α-tubulin (the HDAC6 substrate)”. Also, the “HDAC decreasing effect under cotreatment with proteasome inhibitor bortezomib” value in the experiment on RPMI-8226 cells was “could not reverse”. Also, in the experiment with RPMI-8226 cells (up to 20 μM), the “HDAC1 and HDAC6 protein levels (western blot)” value is “did not lead to HDAC1 or HDAC6 depletion”. Besides, the “anti-angiogenesis activity (microvessel outgrowth) at 5 μM” value (“anti-angiogenesis activity” for short) in the experiment on rat thoracic aorta rings was “superior anti-angiogenesis activities relative to bestatin”. For the same compound, the “microvessel outgrowth from thoracic aorta ring” value with rat thoracic aorta rings is “effectively inhibited the microvessel outgrowth in a dose-dependent manner”. Further, the inhibition at 10 µM was > 90% on HDAC8 (read-out: Inhibitory Rates at 10 μM, HDAC8, 10 μM); > 90% at HDAC1 (read-out: Inhibitory Rates at 10 μM, HDAC1, 10 μM); > 90% at HDAC6 (read-out: Inhibitory Rates at 10 μM, HDAC6, 10 μM).

For `CC(C)C[C@H](NC(=O)[C@@H](O)[C@H](N)Cc1ccccc1)C(=O)NCCOCCOCCNC(=O)c1cccc(C(=O)NO)c1.O=C(O)C(F)(F)F` [P2, N^1-((11S,14S,15R)-15-Amino-14-hydroxy-11-isobutyl-10,13-dioxo-16-phenyl-3,6-dioxa-9,12-diazahexadecyl)-N^3-hydroxyisophthalamide trifluoroacetate], the IC50 in experiment [1] is 1670 ± 30 nM. Further, the “anti-angiogenesis activity” value in the experiment with rat thoracic aorta rings is reported as “superior anti-angiogenesis activities relative to bestatin; also recorded: almost completely inhibit the microvessel outgrowth”. Besides, the “microvessel outgrowth from thoracic aorta ring” value in the experiment with rat thoracic aorta rings is “effectively inhibited the microvessel outgrowth in a dose-dependent manner”. Further, the inhibition at 10 µM at HDAC8 (setting [2]) came out at 64%; on HDAC1 (setting [3]), 66%; on HDAC6 (setting [4]), 76%.

In turn, `CC(C)C[C@H](NC(=O)[C@@H](O)[C@H](N)Cc1ccccc1)C(=O)NCCOCCOCC(=O)Nc1cccc(C(=O)NO)c1` [P3, 3-((11S,14S,15R)-15-Amino-14-hydroxy-11-isobutyl-10,13-dioxo-16-phenyl-3,6-dioxa-9,12-diazahexadecanamido)-N-hydroxybenzamide] came in with an IC50 in experiment [1] of 2650 ± 160 nM. Besides, in the experiment with rat thoracic aorta rings, the “anti-angiogenesis activity” value was “superior anti-angiogenesis activities relative to bestatin”. The “microvessel outgrowth from thoracic aorta ring” value with rat thoracic aorta rings is reported as “effectively inhibited the microvessel outgrowth in a dose-dependent manner”. Also, the inhibition at 10 µM on HDAC8 (setting [2]) stood at 51%; at HDAC1 (setting [3]), 67%; at HDAC6 (setting [4]), 71%.

As to `O=C(CCCCCCC(=O)Nc1ccccc1)NO` [SAHA], the “HDAC1, HDAC6 and HDAC8 protein levels (western blot)” value with RPMI-8226 cells (5 μM) is “effectively lead to the downregulation of HDAC1, HDAC6 and HDAC8”. Further, in the experiment on RPMI-8226 cells, the “acetyl-histone H3 and acetyl-α-tubulin levels (intracellular target engagement)” value is “potently inhibited the intracellular HDAC”; the “HDAC decreasing effect under cotreatment with proteasome inhibitor bortezomib” value was “could not reverse”. For the same compound, the “HDAC1 and HDAC6 protein levels (western blot)” value with RPMI-8226 cells (indicated concentrations) was “without influencing the levels of HDAC1 and HDAC6”.
